Results reported in patent US20020127536A1, “Mitochondrial assay” (priority 2001, published 2002).
“Also recorded” adds a separate entry of the source.

Assays:
[1] = system: isolated rat liver mitochondria; assay: Polarographic assay of basal respiration: uncoupling action; type: biochemical; conditions: for Uncoupling: 500 μM drug, isolated rat liver mitochondria, qualitative; for Uncoupling action (in words): drug added to rat liver mitochondria respiring in the basal state
From the text: Normally electron transport proceeds at a slow basal rate in the presence of an oxidizable substrate unless the H^+ gradient is dissipated by a need for ATP synthesis. However, if the H^+ gradient is dissipated by the addition of a chemical that alters membrane permeability to H^+, respiration will be stimulated unproductively, that is, without concomitant ATP synthesis, so that energy is wasted. […] If respiration (oxygen consumption) is stimulated, uncoupling is inferred.
The second test determines whether the drug uncouples electron transport from ATP synthesis. Normally, in these preparations, electron transport will proceed at a slow basal rate in the presence of an oxidizable substrate, unless the H^+ gradient is dissipated by a need for ATP synthesis. However, if the H^+ gradient is dissipated by the addition of a drug that alters membrane permeability to H^+, respiration will be stimulated unproductively (i.e., without concomitant ATP synthesis) so that energy is wasted. […] If respiration (e.g., oxygen consumption) is stimulated, uncoupling is inferred.
Normally electron transport proceeds at a slow basal rate in the presence of an oxidizable substrate unless the H^+ gradient is dissipated by a need for ATP synthesis. However, if the H^+ gradient is dissipated by the addition of a drug that alters membrane permeability to H^+ , respiration will be stimulated unproductively without concomitant ATP synthesis so that energy is wasted. Haloperidol, quetiapine, risperidone, and clozapine were added to mitochondria respiring in the basal state (FIG. 3). If respiration (i e., oxygen consumption) is stimulated, uncoupling is inferred.

respiratory complex II = assay: Polarographic assay of uncoupled (2,4-dinitrophenol) maximal respiration with succinate: inhibition of electron transport at site II; type: biochemical; conditions: 500 μM drug, isolated rat liver mitochondria, qualitative
ATP synthetase = assay: Polarographic assay of ADP-stimulated coupled versus uncoupled respiration: inhibition of ATP synthetase; type: biochemical; conditions: 500 μM drug; isolated rat liver mitochondria; qualitative
Procedure: (§1) When coupling is intact, basal respiration will be stimulated by the addition of ADP to invoke ATP synthesis, as electron transport is stepped up to replace the H^+ gradient that is used by the ATP synthetase enzyme. If the drug inhibits this coupled respiration rate, the inhibition could be due either to inhibition of the ATP synthetase itself or to inhibition of the electron transport rate that supports the ATP synthesis. To detect which is inhibited, the drug is also tested for inhibition of maximal electron transport rates in the presence of a known uncoupler. Inhibition of the coupled, but not the uncoupled respiration rate pinpoints the inhibition to the ATP synthetase or to one of the supporting transport processes such as the phosphate or ADP/ATP transporters.
as §1, with “The third test examines whether the drug inhibits ATP synthetase. When” for “When”, “the difference,” for “which is inhibited,”, “uncoupler, as in the first test described supra.” for “uncoupler.”, “coupled” for “coupled,”, “as” for “as the”
When coupling is intact, basal respiration is stimulated by the addition of ADP which stimulates ATP synthesis, as electron transport is stepped up to re-establish the H^+ gradient that is used by the ATP synthetase enzyme. If the drug inhibits this coupled respiration rate, the inhibition could be due either to inhibition of the ATP synthetase itself or to inhibition of the electron transport rate that supports the ATP synthesis. Haloperidol, quetiapine, risperidone, and clozapine were tested for inhibition of maximal electron transport rates in the presence and absence of a known uncoupler (FIG. 4). Inhibition of the coupled, but not the uncoupled respiration rate pinpoints the inhibition to the ATP synthetase or to one of the supporting transport processes such as phosphate or ADP/ATP transporters.

electron transport chain = assay: Polarographic assay of maximal electron transport rate (oxygen consumption), overall inhibition; type: biochemical; conditions: rat liver mitochondria, maximal rate of oxygen consumption with 2,4-dinitrophenol
Procedure: A known uncoupler (2,4-dinitrophenol) was added in the presence of an oxidizable substrate to elicit maximal electron transport rates, measured as the maximal rate of oxygen consumption; a slower rate in the presence of the drug indicates inhibition somewhere in the electron transport chain.
A known uncoupler of oxidative phosphorylation (e.g., 2,4-dinitrophenol) is added to the preparation to elicit maximal electron transport rates, measured as the rate of oxygen consumption. A slower rate in the presence of the drug indicates inhibition somewhere along the electron transport chain. The test is performed with different substrates that donate electrons at either respiratory complex I (glutamate and malate) or at complex II (succinate) or via electron-transferring flavoprotein (ETF) to gain information about site-specific inhibition.
(§2) Mitochondrial respiration is measured polarographically using a Clark oxygen electrode. To test for drug effect, an appropriate concentration of drug is introduced at the beginning of the assay, prior to the addition of substrate. The test substance (e.g., drug) is thus present continuously in the assays as the basal, coupled and uncoupled rates are successively determined. The solvent in which the drug is dissolved is tested alone as the control.
(§3) Rates were measured as the rate of oxygen consumption. A slower rate in the presence of the drug indicates inhibition somewhere in the electron transport chain. The tests were performed with different substrates that donate electrons at either respiratory complex I (glutamate+malate) or at complex II (succinate) to gain information about site-specific inhibition.

respiratory complex I = conditions: glutamate+malate; for El. Transport Site I: 500 μM drug, isolated rat liver mitochondria, qualitative; for Inhibition of electron transport at respiratory complex I (in words): rat liver mitochondria, 2,4-dinitrophenol added, preliminary data
Procedure: A known uncoupler (2,4-dinitrophenol) was added in the presence of an oxidizable substrate to elicit maximal electron transport rates, measured as the maximal rate of oxygen consumption; a slower rate in the presence of the drug indicates inhibition somewhere in the electron transport chain. The assay is performed with different substrates that donate electrons at either respiratory complex I (glutamate+malate) or at complex II (succinate) or through electron-transferring flavoprotein (ETF) (not shown) to gain information about site-specific inhibition.
This first test answers the questions of whether the compound under study inhibits electron transport, and if so, whether inhibition involves specific respiratory enzyme complexes in the electron transport chain. A known uncoupler of oxidative phosphorylation (e.g., 2,4-dinitrophenol) is added to the preparation to elicit maximal electron transport rates, measured as the rate of oxygen consumption. A slower rate in the presence of the drug indicates inhibition somewhere along the electron transport chain. The test is performed with different substrates that donate electrons at either respiratory complex I (glutamate and malate) or at complex II (succinate) or via electron-transferring flavoprotein (ETF) to gain information about site-specific inhibition.
as §2
Stimulation of basal respiration by the drug indicates uncoupling. If inhibition of the coupled rate is observed, this could be due to inhibition of ATP synthetase function, or to inhibition of electron transport. If the addition of uncoupler fails to relieve the inhibition, then the drug is inhibiting electron transport; and if the addition of uncoupler relieves the inhibition, then the drug is inhibiting ATP synthetase function.
Information about site specific electron transport inhibition can be obtained with this assay by using substrates that donate electrons to the respiratory chain at different branch sites. For example, by separately including either succinate which donates to complex II or glutamate+malate which donates electrons to complex I, or other organic acids which donate through electron-transferring flavoprotein (ETF).
as §3

[2] = system: mitochondrial respiratory complex I; conditions: literature statement; cited from earlier work

O=[N+]([O-])c1ccc(O)c([N+](=O)[O-])c1 [2,4-dinitrophenol]
Stimulation of basal respiration ([1]; known uncoupler, rat liver mitochondria in basal state with oxidizable substrate): 6-10 fold

CN(C)CCCN1c2ccccc2Sc2ccc(Cl)cc21 [Chlorpromazine]
El. Transport Site II (respiratory complex II): +
ATP Synthesis (ATP synthetase): −
Uncoupling [1]: ++
Uncoupling action (in words) [1]: more potent than clozapine
Inhibition of electron transport, overall (in words) (electron transport chain): potent inhibitors of electron transport
El. Transport Site I (respiratory complex I): +++
Inhibition of electron transport at respiratory complex I (in words) (respiratory complex I): inhibited electron transport specifically at respiratory complex I

O=C(CCC[n+]1ccc(-c2ccc(Cl)cc2)cc1)c1ccc(F)cc1 [HPP^+]
Inhibition of mitochondrial complex I (in words) [2]: potent inhibitor of mitochondrial complex I

O=C(CCCN1CCC(O)(c2ccc(Cl)cc2)CC1)c1ccc(F)cc1 [Haloperidol]
El. Transport Site II (respiratory complex II): −
ATP Synthesis (ATP synthetase): −
Uncoupling [1]: −
Inhibition of electron transport, overall (in words) (electron transport chain): potent inhibitors of electron transport
El. Transport Site I (respiratory complex I): ++
Inhibition of electron transport at respiratory complex I (in words) (respiratory complex I): inhibited electron transport specifically at respiratory complex I

C[n+]1ccc(-c2ccccc2)cc1 [MPP^+, 1-methyl-4-phenylpyridinium]
Inhibition of mitochondrial complex I (in words) [2]: potent and specific inhibitor of mitochondrial respiratory complex I

OCCOCCN1CCN(C2=Nc3ccccc3Sc3ccccc32)CC1 [Quetiapine]
El. Transport Site II (respiratory complex II): −
ATP Synthesis (ATP synthetase): −
Uncoupling [1]: +
Uncoupling action (in words) [1]: more potent than clozapine
Inhibition of electron transport, overall (in words) (electron transport chain): very mild effects
El. Transport Site I (respiratory complex I): +
Inhibition of electron transport at respiratory complex I (in words) (respiratory complex I): had a slight effect and was also specific for complex I

Cc1nc2n(c(=O)c1CCN1CCC(c3noc4cc(F)ccc34)CC1)CCCC2 [Risperidone]
El. Transport Site II (respiratory complex II): +
ATP Synthesis (ATP synthetase): −
Uncoupling [1]: ++
Uncoupling action (in words) [1]: more potent than clozapine
Inhibition of electron transport, overall (in words) (electron transport chain): inhibited electron transport markedly but not specifically at either complex I or II; also recorded: potent inhibitors of electron transport
El. Transport Site I (respiratory complex I): +++

CSc1ccc2c(c1)N(CCC1CCCCN1C)c1ccccc1S2 (stereo not drawn) [Thioridazine]
El. Transport Site II (respiratory complex II): +
ATP Synthesis (ATP synthetase): −
Uncoupling [1]: ++
Uncoupling action (in words) [1]: more potent than clozapine
Inhibition of electron transport, overall (in words) (electron transport chain): inhibited electron transport markedly but not specifically at either complex I or II
Inhibition of electron transport, overall (in words) (electron transport chain; listed as thioridazine): potent inhibitors of electron transport
El. Transport Site I (respiratory complex I): +++
